Here are results for five molecules from patent publication US9999222B2, “Herbicidal combination comprising azines” (BASF SE, priority 2014, dated 2018).

Holding throughout (test): Greenhouse test, pre-emergence treatment
The subject of one assay is ECHCG. The class given is in vivo, Echinocloa crus-galli. The text has this: (§1) The culture containers used were plastic flowerpots containing loamy sand with approximately 3.0% of humus as the substrate. The seeds of the test plants were sown separately for each species.
(§2) For the pre-emergence treatment, the active ingredients, which had been suspended or emulsified in water, were applied directly after sowing by means of finely distributing nozzles. The containers were irrigated gently to promote germination and growth and subsequently covered with transparent plastic hoods until the plants had rooted. This cover caused uniform germination of the test plants, unless this had been impaired by the active ingredients.
(§3) Depending on the species, the plants were kept at 10-25° C. or 20-35° C., respectively.
(§4) The test period extended over 2 to 4 weeks. During this time, the plants were tended, and their response to the individual treatments was evaluated.
(§5) Evaluation was carried out using a scale from 0 to 100. 100 means no emergence of the plants, or complete destruction of at least the aerial moieties, and 0 means no damage, or normal course of growth. A moderate herbicidal activity is given at values of at least 60, a good herbicidal activity is given at values of at least 70, and a very good herbicidal activity is given at values of at least 85.
(§6) The respective stated components a and b, and if appropriate, c were formulated as a 10% by weight strength emulsion concentrate and, with addition of the amount of solvent system, introduced into the spray liquor used for applying the active compound.
(§7) In the examples, the solvent used was water.
(§8) In the examples below, using the method of S. R. Colby (1967) “Calculating synergistic and antagonistic responses of herbicide combinations”, Weeds 15, p. 22ff., the value E, which is expected if the activity of the individual active compounds is only additive, was calculated. E=X+Y−(X·Y/100) where • X=percent activity using active compound a at an application rate A; • Y=percent activity using active compound b at an application rate B; • E=expected activity (in %) by a+b at application rates A+B.
(§9) If the value found experimentally is higher than the value E calculated according to Colby, a synergistic effect is present.

Another assay deals with SETFA. The format is in vivo, Setaria faberi. As to conditions: SETFA, application rate 0.25 kg/ha, scale 0 to 100.
Source text: as §1, §2, §3, §4, §5, §6, §7, §8, §9

The test system of a further assay is AMARE. The class given is in vivo, Amaranthus retroflexus. The conditions noted are these: application rate 0.25 kg/ha, scale 0 to 100.
Source text: as §1, §2, §3, §4
Evaluation was carried out using a scale from 0 to 100. […]
In the examples below, using the method of S. R. Colby (1967) “Calculating synergistic and antagonistic responses of herbicide combinations”, Weeds 15, p. 22ff., the value E, which is expected if the activity of the individual active compounds is only additive, was calculated. […]
as §9

In a further assay the test system is ABUTH. The format is in vivo, Abutilon theophrasti. In a few lines: (§10)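 Seeds were sown in loamy sand with approximately 3.0% humus, then sprayed at once with actives suspended or emulsified in water. Pots were watered, hooded until rooting, held at 10-25° C. or 20-35° C. by species for 2 to 4 weeks, and scored 0 (no damage) to 100 (no emergence/complete destruction).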

A further assay deals with BRADC. The format is in vivo, Brachiaria decumbens. The conditions noted are these: pre-emergence, pre-emergence.
Source text: as §1, §2, §3, §4, §5, §6, §7, §8, §9

A further assay concerns AVEFA. The class given is in vivo, Avena fatua. The conditions noted are these: pre-emergence, pre-emergence.
Source text: as §1, §2, §3, §4, §5, §6, §7, §8, §9

The subject of a further assay is ALOMY. The format is in vivo, Alopecurus myosuroides. As to conditions: pre-emergence, pre-emergence. In a few lines:
as §10

The test system of another assay is ELEIN. The format is in vivo, Eleusine indica.
Source text: as §1, §2, §3, §4, §5, §6, §7, §8, §9

The subject of another assay is PHACA. The format is in vivo, Phalaris canariensis. The conditions noted are these: pre-emergence, pre-emergence.
Source text: as §1, §2, §3, §4, §5, §6, §7, §8, §9

The test system of another assay is DIGSA. The class given is in vivo.
For another assay, the system named is IPOHE. The format is in vivo, Ipomoea hederacea. As to conditions: Ipomoea hederacea, 480 h, 60 g ai/ha, read-out: observed % activity 20 DAT. In short, it runs like this:
as §10

The test system of a further assay is GERPU. The format is in vivo, Geranium pusillum. The conditions noted are these: Geranium pusillum, pre-emergence, 480 h. In short, it runs like this:
as §10

The subject of another assay is KCHSC. The format is in vivo, Kochia scoparia. As to conditions: pre-emergence, pre-emergence. In a few lines: as §10
Another assay relates to COMBE. The class given is in vivo, Commelina benghalensis. The conditions noted are these: Commelina benghalensis, pre-emergence, 480 h. In short, it runs like this:
as §10

In another assay the test system is POLCO. The class given is in vivo, Polygonum convolvulus. The conditions noted are these: pre-emergence; for observed % activity 20 DAT: POLCO. In a few lines:
as §10

The next assay deals with GALAP. The class given is in vivo, Galium aparine. As to conditions: Galium aparine, pre-emergence, 480 h. In short, it runs like this:
as §10

In another assay the test system is SIDRH. The format is in vivo, Sida rhombifolia. As to conditions: Sida rhombifolia, pre-emergence, 480 h, 40 g ai/ha, 20 DAT; read-out: observed % activity. In a few lines: as §10
Another assay deals with CENCY. The format is in vivo. The conditions noted are these: 480 h, read-out: observed % activity 20 DAT.
The test system of another assay is EPHHL. The class given is in vivo, Euphorbia heterophylla. As to conditions: Euphorbia heterophylla, pre-emergence, 480 h. In short, it runs like this:
as §10

A further assay deals with ANTAR. The format is in vivo. The conditions noted are these: Anthemis arvensis, 480 h, 40 g ai/ha, 20 DAT, read-out: observed % activity. In a few lines:
as §10

A further assay has as its system LOLMU. The format is in vivo, Lolium multiflorum. As to conditions: pre-emergence.
Source text: as §1, §2, §3, §4, §5, §6, §7, §8, §9

A further assay concerns SETVI. The format is in vivo, Setaria viridis.
Source text: as §1, §2, §3, §4, §5, §6, §7, §8, §9

[1] abbreviates: 40 g ai/ha, 20 DAT, read-out: observed % activity.
[2] abbreviates: 80 g ai/ha, 20 DAT, read-out: observed % activity.
Setting [3] is: 60 g ai/ha, read-out: observed % activity 20 DAT.

Several values for one entry are separate records, joined by “and”; a condition that tells them apart may be missing. Equal values may be shown once.

On to `CC(c1nc(N)nc(Nc2c(F)c(F)cc(F)c2F)n1)C(C)(C)C` (stereo not shown) [Example 7, N4-(2,3,5,6-tetrafluorophenyl)-6-(1,2,2-trimethylpropyl)-1,3,5-triazine-2,4-diamine], for which the herbicidal activity result in the assay on ECHCG (ECHCG, application rate 0.25 kg/ha, scale 0 to 100) is on record as “very good herbicidal activity (a very good herbicidal activity is given at values of at least 85)”; in the assay on SETFA, “very good herbicidal activity (a very good herbicidal activity is given at values of at least 85)”; with AMARE, “very good herbicidal activity (a very good herbicidal activity is given at values of at least 85)”.

`CCCC(C)c1nc(N)nc(Nc2c(F)c(F)cc(F)c2F)n1` (stereo not shown) [Example 6, 6-(1-methylbutyl)-N4-(2,3,5,6-tetrafluorophenyl)-1,3,5-triazine-2,4-diamine]: the herbicidal activity entry is “very good herbicidal activity (a very good herbicidal activity is given at values of at least 85)” with SETFA; “very good herbicidal activity (a very good herbicidal activity is given at values of at least 85)” with ABUTH (ABUTH, application rate 0.25 kg/ha, scale 0 to 100); “very good herbicidal activity (a very good herbicidal activity is given at values of at least 85)” with AMARE.

As to `CC(C)N(C(=O)SCC(Cl)=C(Cl)Cl)C(C)C` [Tri-allate, triallate], the inhibition at 200 g/ha in the assay with BRADC (Urochloa decumbens, 480 h, 200 g ai/ha, read-out: observed % activity 20 DAT) worked out at 0%; with AVEFA (Avena fatua, 480 h, 200 g ai/ha, read-out: observed % activity 20 DAT), 45%; in the assay with PHACA (Phalaris canariensis, 480 h, 200 g ai/ha, read-out: observed % activity 20 DAT) it was 0%. The inhibition at 400 g/ha in the assay with AVEFA (Avena fatua, 480 h, 400 g ai/ha, read-out: observed % activity 20 DAT) is 75%; in the assay with ALOMY (Alopecurus myosuroides, 480 h, 400 g ai/ha, read-out: observed % activity 20 DAT), 5%; with ELEIN (Eleusine indica, 480 h, 400 g ai/ha, read-out: observed % activity 20 DAT), 0%; in the assay with PHACA (Phalaris canariensis, 480 h, 400 g ai/ha, read-out: observed % activity 20 DAT), 0%; in the assay on DIGSA (Digitaria sanguinalis, 480 h, 400 g ai/ha, read-out: observed % activity 20 DAT), 0%.

`O=C(Nc1ccc(F)cc1F)c1cccnc1Oc1cccc(C(F)(F)F)c1` [diflufenican]: the inhibition at 60 g/ha was 15% in the assay on IPOHE; 60% in the assay with GERPU (setting [3]); 80% with KCHSC (Bassia scoparia, 480 h, 60 g ai/ha, read-out: observed % activity 20 DAT); 35% in the assay with COMBE (setting [3]); 0% with ABUTH (Abutilon theophrasti, 480 h, 60 g ai/ha, read-out: observed % activity 20 DAT); 60% in the assay with POLCO (Fallopia convolvulus, 480 h, 60 g ai/ha, read-out: observed % activity 20 DAT). Further, the inhibition at 60 g/ha with GALAP (setting [3]) was 25%; in the assay on CENCY (60 g ai/ha), 0%; in the assay on EPHHL (setting [3]) it was 15%. For the same molecule, the inhibition at 40 g/ha in the assay with GERPU (setting [1]) stood at 40%; with ABUTH (Abutilon theophrasti, 480 h, 40 g ai/ha, 20 DAT, read-out: observed % activity), 25%; in the assay with POLCO (Fallopia convolvulus, 480 h, 40 g ai/ha, 20 DAT, read-out: observed % activity) it was 20%; in the assay on SIDRH, 0%; in the assay with EPHHL (setting [1]) it was 20%; in the assay with ANTAR, 85%. In addition, the inhibition at 80 g/ha was 50% with GERPU (setting [2]); 55% with COMBE (setting [2]); 50% with ABUTH (Abutilon theophrasti, 480 h, 80 g ai/ha, 20 DAT, read-out: observed % activity); 40% in the assay on GALAP (setting [2]). Also, the inhibition at 30 g/ha in the assay on ABUTH (Abutilon theophrasti, 480 h, 30 g ai/ha, read-out: observed % activity 20 DAT) is 0%; in the assay with GALAP (30 g ai/ha, read-out: observed % activity 20 DAT), 20%; in the assay on CENCY (30 g ai/ha), 0%.

Regarding `C#CCN1C(=O)C(F)(F)Oc2cc(F)c(-n3c(=O)n(C)c(=S)n(C)c3=O)cc21` [PPO, trifludimoxazin], the “observed % activity 20 DAT” value with BRADC (25 g ai/ha) is on record as 65%; in the assay with BRADC (36 g ai/ha) it was 25%; in the assay with ECHCG (18 g ai/ha), 0%; in the assay on AVEFA (25 g ai/ha) it was 0%; in the assay on AVEFA (36 g ai/ha), 15%; in the assay with AVEFA (50 g ai/ha) it was 0%. For the same molecule, the “observed % activity 20 DAT” value in the assay with ALOMY (25 g ai/ha) is 60%; in the assay on KCHSC (KCHSC, use rate 12.5 g ai/ha, 20 DAT), 25%; in the assay with KCHSC (use rate 12.5 g ai/ha) it was 25%; in the assay with KCHSC (use rate 25 g ai/ha) it was 85%; in the assay with POLCO (use rate 12.5 g ai/ha, 20 DAT), 0%; with POLCO (use rate 25 g ai/ha, 20 DAT), 0%. The “observed % activity 20 DAT” value in the assay with LOLMU (25 g ai/ha) is on record as 0%; in the assay on LOLMU (36 g ai/ha), 35%; with LOLMU (50 g ai/ha) it was 55%; in the assay with SETVI (18 g ai/ha) it was 95%; with SETVI (36 g ai/ha), 90%; in the assay with ELEIN (18 g ai/ha), 55%. Also, the “observed % activity 20 DAT” value with ELEIN (36 g ai/ha) is 90%; in the assay on PHACA (18 g ai/ha), 45%; in the assay with PHACA (25 g ai/ha), 35%; with PHACA (36 g ai/ha, listed as BAS 850 (PPO)), 70% and 65%; in the assay with PHACA (use rate 12.5 g ai/ha), 85%; with DIGSA (18 g ai/ha), 85%. Moreover, the “observed % activity 20 DAT” value in the assay with DIGSA (36 g ai/ha) amounted to 90%.
